Test results taken from patent publication EP0363353B1, “FUSED BENZAZEPINES” (SCHERING CORPORATION, priority 1987, dated 1989).

Columns and labels:
D-2 receptor = biological target: T1, D-2 receptor (Rattus norvegicus, UniProt P61169); experiment: Competitive inhibition assay, displacement of 3H-spiperone; format: binding; conditions: 3H-spiperone 0.2 nM; rat striatal tissue homogenate; 37°C for 15 minutes
T1 construct: Striatal tissue was excised, pooled, and homogenized; from tissue; host or cells: rat striatum (Sprague-Dawley), washed membrane pellet
T1 sequence (P61169 whole entry): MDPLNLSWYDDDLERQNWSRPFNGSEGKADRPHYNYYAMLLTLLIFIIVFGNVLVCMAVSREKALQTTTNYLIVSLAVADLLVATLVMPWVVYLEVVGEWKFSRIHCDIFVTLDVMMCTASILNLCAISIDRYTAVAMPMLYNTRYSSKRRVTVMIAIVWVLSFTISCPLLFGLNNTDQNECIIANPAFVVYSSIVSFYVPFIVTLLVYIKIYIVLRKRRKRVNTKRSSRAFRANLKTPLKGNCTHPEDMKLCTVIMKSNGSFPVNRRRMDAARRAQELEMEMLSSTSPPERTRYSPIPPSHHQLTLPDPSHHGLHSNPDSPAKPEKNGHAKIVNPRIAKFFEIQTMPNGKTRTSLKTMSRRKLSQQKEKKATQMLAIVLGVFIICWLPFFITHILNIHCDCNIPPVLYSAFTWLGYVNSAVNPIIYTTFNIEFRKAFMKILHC
From the text: (§1) A methodology for characterization of D-1 and D-2 receptor binding and an interpretation of the data are described by Billard et al., Life Sciences 35, 1885 (1984) in which the binding of the benzazepine (R)-(+)-8-chioro-2,3,4,5-tetrahydro-3-methyi-5-phenyi-1H-3-benzazepin-7-oi hemimaleate (SCH 23390) to the dopamine D-1 receptor is characterized. A selectivity for D-1 receptor binding as compared to D-2 receptor binding is believed to confer the therapeutic advantage of avoiding troublesome and potentially irreversible neurological side effects associated with D-2 receptor occupancy. […]
(§2) Polypropylene incubation tubes received 100 µl of the individual test compounds at various concentrations dissolved or suspended in 0.05 M Tris, pH 7.4 containing 4 mg/ml methylcellulose, 100 µl of a solution of^3H-SCH 23390 in Tris buffer (final reaction mixture concentration =0.3 nM) or 100 µl of a solution of ^3H-spiperone in Tris buffer (final concentration = 0.2 nM) and 800 µl of tissue suspension (ca. 3 mg/assay). […] The filters were-transferred to scintillation vials, equilibated with 10 ml of scintillant (Scintosol, Isolab, Inc.) for 16 hours at 25°C and the radioactivity determined in a liquid scintillation counter. […]

dopamine D-1 receptor = biological target: T2, dopamine D-1 receptor (Rattus norvegicus, UniProt P18901); experiment: Competitive inhibition assay, displacement of 3H-SCH 23390; format: binding
T2 construct: Striatal tissue was excised, pooled, and homogenized; from tissue; host or cells: rat striatum (Sprague-Dawley), washed membrane pellet
T2 sequence (P18901 whole entry): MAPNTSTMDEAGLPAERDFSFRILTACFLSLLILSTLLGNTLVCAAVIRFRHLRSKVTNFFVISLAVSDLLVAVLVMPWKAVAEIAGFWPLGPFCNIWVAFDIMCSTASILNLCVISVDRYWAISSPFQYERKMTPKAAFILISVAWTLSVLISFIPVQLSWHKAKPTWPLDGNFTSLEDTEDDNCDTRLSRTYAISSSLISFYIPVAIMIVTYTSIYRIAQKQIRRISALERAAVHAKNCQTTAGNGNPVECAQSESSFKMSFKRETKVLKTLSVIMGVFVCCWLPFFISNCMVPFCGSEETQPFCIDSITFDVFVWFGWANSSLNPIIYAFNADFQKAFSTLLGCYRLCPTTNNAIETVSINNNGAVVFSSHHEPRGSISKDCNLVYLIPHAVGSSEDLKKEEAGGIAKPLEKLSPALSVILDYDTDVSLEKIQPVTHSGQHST
From the text: as §1, §2

Row | Compound | Ki (D-2 receptor) | Ki (dopamine D-1 receptor)
1 | Oc1cc2c(cc1Cl)CCN[C@H]1Cc3ccccc3[C@H]21 (racemic) | 1580 nM | 7 nM
2 | CN1CCc2cc(Cl)c(O)cc2[C@H]2c3ccccc3C[C@@H]21 (racemic) [Trans-6-methyl-5,6,7,7a,8,12b-hexahydro-2-hydroxy-3-chloro-benz[d]indeno-[2,1-b]azepine] | 12000 nM | 7 nM
